In this test the target is T1, human PDHK1 (hPDHK1) (Homo sapiens, UniProt Q15118).
T1 construct: made in house; host or cells: Escherichia coli BL21(DE3), pET17b vector
Briefly: Inhibitory action of PDHK1 activity in vitro (residual PDH activity after kinase reaction). The class given is biochemical. As to conditions: PDH/hPDHK1 complex, 45 min kinase reaction at room temperature. Here is the method: The inhibitory action of PDHK activity was assessed indirectly by measuring the residual PDH activity after kinase reaction in the presence of a test compound.
In the case of human PDHK1 (hPDHK1, Genbank Accession No. L42450.1), a 1.3 kbp fragment encoding this protein was isolated from human liver cDNA by polymerase chain reaction (PCR). Modified hPDHK1 cDNA wherein FLAG-Tag sequence was added to the N terminus was prepared by PCR and cloned into a vector (pET17b-Novagen). The recombinant construct was transformed into Escherichia coli (DH5α-TOYOBO). The recombinant clones were identified, and plasmid DNA was isolated and subjected to the DNA sequence analysis. One clone which had the expected nucleic acid sequence was selected for expression work. […]
Then, 10 μL of substrates (5 mmol/L sodium pyruvate, 5 mmol/L Coenzyme A, 12 mmol/L NAD, 5 mmol/L thiamin pyrophosphate, diluted with buffer) were added. The mixture was incubated at room temperature for 90 min, and the residual PDH activity was measured.
2.5 The absorbance at 340 nm before and after PDH reaction was measured using a microplate reader to detect NADH produced by the PDH reaction. The hPDHK1 inhibition rate (%) of the test compound was calculated from the formula [{(PDH activity of the test compound−PDH activity of control)/PDH activity of blank−PDH activity of control)}×100].

This passage reports IC50 results from patent publication US20150018403A1, “FLUORENE-AMIDE COMPOUNDS AND PHARMACEUTICAL USE THEREOF” (JAPAN TOBACCO INC., priority 2013, published 2015).

pIC50: −log10 of the molar value.

In general, pIC50 refers to the IC50 on a negative log10 scale, so that one unit is a factor of ten. Read a low pIC50 as a large IC50.

T1 sequence (Q15118 29-436): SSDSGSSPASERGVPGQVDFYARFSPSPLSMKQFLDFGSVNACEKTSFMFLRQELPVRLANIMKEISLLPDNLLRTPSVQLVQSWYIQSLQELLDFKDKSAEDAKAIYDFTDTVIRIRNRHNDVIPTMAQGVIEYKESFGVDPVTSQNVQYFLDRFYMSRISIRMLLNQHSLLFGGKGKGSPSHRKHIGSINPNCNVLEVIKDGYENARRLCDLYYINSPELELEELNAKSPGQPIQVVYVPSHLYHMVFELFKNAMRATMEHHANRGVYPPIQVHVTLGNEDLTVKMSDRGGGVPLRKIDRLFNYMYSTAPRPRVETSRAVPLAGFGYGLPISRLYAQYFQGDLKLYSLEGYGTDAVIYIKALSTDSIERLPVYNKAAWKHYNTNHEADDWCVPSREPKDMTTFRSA

Consider `C[C@H](O)COc1cc(-c2cnn(C(C)(C)C(N)=O)c2)c2c(c1)[C@@](O)(C(F)(F)F)c1ccccc1-2` [compound (2), 2-(4-{(9R)-9-hydroxy-2-[(2S)-2-hydroxypropoxy]-9-(trifluoromethyl)-9H-fluoren-4-yl}-1H-pyrazol-1-yl)-2-methylpropanamide], for which the pIC50 was 8.29.
